According to paper PMC5833296 (Journal of medicinal chemistry, 2018):
Marks after values point to notes of the source that are not given here.

Columns and labels:
[1] = mouse, in vivo
[2] = pH 1
[3] = system: BoNT/A holotoxin
[4] = system: AGP; settings: pH 7.34
[5] = system: CYP450 enzymes (CYP3A4, CYP2C19, CYP2D6); experiment: in vitro; settings: human
[6] = target: HSA (Homo sapiens, UniProt P02768); settings: pH 7.34
[7] = system: healthy mice; settings: mouse, in vivo
[8] = target: BoNT/A holotoxin (Clostridium botulinum, UniProt P0DPI1); experiment: cell-based
BoNT/A holotoxin (Clostridium botulinum, UniProt P0DPI1), sequence (P0DPI1 2-448 limits assumed): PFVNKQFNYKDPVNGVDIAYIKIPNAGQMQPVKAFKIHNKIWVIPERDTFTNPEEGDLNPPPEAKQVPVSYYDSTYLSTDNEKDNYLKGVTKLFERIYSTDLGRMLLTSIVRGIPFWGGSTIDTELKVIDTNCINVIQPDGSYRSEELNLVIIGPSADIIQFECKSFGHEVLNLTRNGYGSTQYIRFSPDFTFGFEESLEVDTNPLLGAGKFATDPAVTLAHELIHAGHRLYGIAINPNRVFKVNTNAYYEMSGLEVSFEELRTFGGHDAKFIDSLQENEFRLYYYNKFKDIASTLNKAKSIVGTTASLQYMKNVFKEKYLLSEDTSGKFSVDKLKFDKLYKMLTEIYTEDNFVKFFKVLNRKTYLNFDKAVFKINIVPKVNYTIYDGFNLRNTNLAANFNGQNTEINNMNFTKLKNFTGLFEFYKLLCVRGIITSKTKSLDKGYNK

HSA, sequence (P02768 25-609): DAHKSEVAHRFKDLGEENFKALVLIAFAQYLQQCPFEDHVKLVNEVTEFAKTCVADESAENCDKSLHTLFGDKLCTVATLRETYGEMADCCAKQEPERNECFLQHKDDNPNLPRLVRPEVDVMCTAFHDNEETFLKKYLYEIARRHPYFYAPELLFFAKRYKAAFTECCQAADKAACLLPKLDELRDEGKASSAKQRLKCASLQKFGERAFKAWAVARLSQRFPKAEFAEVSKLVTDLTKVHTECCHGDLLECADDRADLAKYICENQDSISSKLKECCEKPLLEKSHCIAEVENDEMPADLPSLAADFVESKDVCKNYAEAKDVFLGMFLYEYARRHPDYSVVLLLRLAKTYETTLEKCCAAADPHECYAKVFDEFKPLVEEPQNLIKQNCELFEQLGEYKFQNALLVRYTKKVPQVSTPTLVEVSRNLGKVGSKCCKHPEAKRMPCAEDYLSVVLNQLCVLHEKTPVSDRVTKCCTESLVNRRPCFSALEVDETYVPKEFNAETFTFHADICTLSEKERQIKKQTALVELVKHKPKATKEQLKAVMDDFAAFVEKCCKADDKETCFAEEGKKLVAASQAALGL

**Q.** What does the source list for `CC(=O)O[C@H]1C[C@H]2[C@@H]([C@H](OC(C)=O)C[C@@H]3C[C@H](N)CC[C@@]32C)[C@@H]2CC[C@H]([C@H](C)CCCNCCCCNc3ccnc4cc(Cl)ccc34)[C@@]12C` [Compound 16]?
**A.** time Tc > 3μM [1]: >45 min; exp LogD [2]: 2.55 (pH=1); 2.07 (pH=7.3) ^d; toxicity in mES-MNs (GAPDH loading control levels lower) [3]: potential toxicity; Ksv for AGP [4]: (6.99±0.25)×10^5; IC50 [5]: 1 to 10 µM; Ksv for HSA [6]: (4.56±0.27)×10^4; host toxicity, single oral dose [7]: non-toxic; Mice alive/Total mice ([7]; po, 160 mg/kg): 5/5; % of full length SNAP-25, mES-MNs pre intoxication [8]: 72; 88%
